Experimental data published in the Deep4Chem optical property database.

Experiment: photoluminescence quantum yield (fraction); solvent given as SMILES

`CCC1(CC)c2cc(N(c3ccccc3)c3ccccc3)ccc2-c2c1c1c(c3c2C(CC)(CC)c2cc(N(c4ccccc4)c4ccccc4)ccc2-3)C(CC)(CC)c2cc(N(c3ccccc3)c3ccccc3)ccc2-1` showed a photoluminescence quantum yield (in C1CCOC1) of 0.27.

Work on `C/C(=C\c1ccc(C)cc1)c1nc2ccccc2s1` yielded a photoluminescence quantum yield (in C1CCCCC1) of 0.003 and a photoluminescence quantum yield (in CO) of 0.001.

`c1ccc(-c2c3ccccc3c(-c3ccc4ccccc4c3)c3ccccc23)nc1` showed a photoluminescence quantum yield (in ClCCl) of 0.75.

`Fc1cc(F)c2cc3cccc[n+]3cc2c1` gave a photoluminescence quantum yield (in O) of 0.3.

`CNC(=O)[C@H](C)NC(=O)c1cccc2c1C#Cc1c(NC(=O)[C@@H](NC(C)=O)C(C)C)cccc1OCCCO2` gave a photoluminescence quantum yield (in CC#N) of 0.02 and a photoluminescence quantum yield (in ClCCl) of 0.03.

For `c1ccc(N2c3ccccc3Sc3cc(-c4cccc5nc6ccccc6cc45)ccc32)cc1`, the photoluminescence quantum yield (in CC#N) was 0.0076, the photoluminescence quantum yield (in CCCCCC) was 0.213 and the photoluminescence quantum yield (in CCOCC) was 0.17. The photoluminescence quantum yield (in ClCCl) was 0.0635.

`CC/[NH+]=c1\cc2oc3cc(NCCC(=O)NC(C)C(=O)OC)c4ccccc4c3nc-2cc1C` (configuration not stated) showed a photoluminescence quantum yield (in CCO) of 0.39.

`O=c1[nH]c2[n+](c3ccccc13)[B-](F)(F)Oc1ccccc1-2` gave a photoluminescence quantum yield (in CC#N) of 0.201 and a photoluminescence quantum yield (in Cc1ccccc1) of 0.24.

With `CCn1c2ccccc2oc2c(C#N)c3c(oc4ccccc4n3CC)c(C#N)c21` the photoluminescence quantum yield (in ClC(Cl)Cl) was 0.44.

With `O=P1(c2ccccc2)C(c2ccc(C(F)(F)F)cc2)=Cc2ccccc21` (configuration not stated) the photoluminescence quantum yield (in C1CCOC1) was 0.65.

`N#Cc1nc(N(Cc2ccccc2)Cc2ccccc2)c(C#N)nc1N(Cc1ccccc1)Cc1ccccc1` showed a photoluminescence quantum yield (in ClC(Cl)Cl) of 0.76.

`CCOC(=O)c1cc(C(=O)OCC)c2ccccc2n1` showed a photoluminescence quantum yield (in CCO) of 0.006.

`CN(C)c1ccc(/C=C/c2cc(/C=C/c3ccc(N(C)C)cc3)ncn2)cc1` showed a photoluminescence quantum yield (in ClCCl) of 0.4.

For `COc1ccc([C@@H]2C[C@](O)(c3ccccn3)C[C@](O)(c3ccccn3)[C@H]2C(=O)c2ccc(N(c3ccccc3)c3ccccc3)cc2)cc1`, the photoluminescence quantum yield (in C1CCOC1) was 0.5, the photoluminescence quantum yield (in CC#N) was 0.02 and the photoluminescence quantum yield (in CCO) was 0.01. It also gave a photoluminescence quantum yield (in CCOC(C)=O) of 0.42, a photoluminescence quantum yield (in CN(C)C=O) of 0.03 and a photoluminescence quantum yield (in ClCCl) of 0.26. The photoluminescence quantum yield (in c1ccccc1) was 0.93.

`CCCCCCCCN1c2ccc(C#Cc3ccc(F)cc3)cc2Sc2cc(C=O)ccc21` showed a photoluminescence quantum yield (in C1CCOC1) of 0.64, a photoluminescence quantum yield (in CC#N) of 0.24 and a photoluminescence quantum yield (in CCCCCC) of 0.48. The photoluminescence quantum yield (in CO) was 0.07, the photoluminescence quantum yield (in CS(C)=O) was 0.75 and the photoluminescence quantum yield (in Cc1ccccc1) was 0.52. It also gave a photoluminescence quantum yield (in ClC(Cl)Cl) of 0.4.

With `CCCCC(CC)Cn1c2cc(C#N)ccc2c2ccc(C#Cc3cc(C#Cc4ccc5c6ccc(C#N)cc6n(CC(CC)CCCC)c5c4)c4ccc5c(C#Cc6ccc7c8ccc(C#N)cc8n(CC(CC)CCCC)c7c6)cc(C#Cc6ccc7c8ccc(C#N)cc8n(CC(CC)CCCC)c7c6)c6ccc3c4c65)cc21` (configuration not stated) the photoluminescence quantum yield (in ClCCl) was 0.61.

With `COc1ccc(/C=C/c2cc(/C=C/c3ccc(OC)cc3)nc(/C=C/c3ccc4cc(OC)ccc4c3)n2)cc1` the photoluminescence quantum yield (in ClCCl) was 0.11.

In the case of `C[n+]1cc2ccc3c[n+](C)cc4ccc(c1)c2c34`, the photoluminescence quantum yield (in CC#N) is reported as 0.6.

For `CCCCC(CC)Cn1c2cc(-c3ccc(N(c4ccccc4)c4ccccc4)cc3)c(C#N)cc2c2cc(C#N)c(-c3ccc(N(c4ccccc4)c4ccccc4)cc3)cc21` (configuration not stated), the photoluminescence quantum yield (in ClCCl) was 0.8.

With `CC/[NH+]=c1\cc2oc3cc(NCCN)c4ccccc4c3nc-2cc1C` the photoluminescence quantum yield (in CCO) was 0.27 and the photoluminescence quantum yield (in O) was 0.18.

Work on `O=c1c2cccc3cccc(c32)c2nc3c(F)c(F)c(F)c(F)c3n12` yielded a photoluminescence quantum yield (in ClCCl) of 0.82.

For `Cc1cccc(C)c1N1C(c2ccccc2)=Cc2cccc[n+]2[B-]1(F)F`, the photoluminescence quantum yield (in ClCCl) was 0.36.

Compound `Clc1nc(Cl)nc(Nc2ccc3c4cccc5cccc(c6cccc2c63)c54)n1` has a photoluminescence quantum yield (in C1COCCO1) of 0.068, a photoluminescence quantum yield (in CC#N) of 0.011 and a photoluminescence quantum yield (in CCCCOCCCC) of 0.12. It also gave a photoluminescence quantum yield (in CCOC(C)=O) of 0.014.

Work on `O=C1c2ccccc2C2=Nc3cccc4cccc(c34)N12` yielded a photoluminescence quantum yield (in ClCCl) of 0.02.

`CN(C)c1ccc(C2=C3C=C(c4ccc(C=O)cc4)S[C@]34c3ccccc3[C@H]2c2ccccc24)cc1` gave a photoluminescence quantum yield (in ClCCl) of 0.54.

In the case of `COc1ccc(-c2c3ccccc3c(-c3ccc(OC)cc3)c3ccccc23)cc1`, the photoluminescence quantum yield (in ClCCl) is reported as 0.59.

`CC[n+]1nc2cc3c(cc2c2cc(C)ccc21)N(C)CCC3` gave a photoluminescence quantum yield (in O) of 0.54.

In the case of `Cc1cc(C)c(B(c2ccc(N(c3ccccc3)c3ccccc3)cc2)c2c(C)cc(C)cc2C)c(C)c1`, the photoluminescence quantum yield (in Cc1ccccc1) is reported as 0.91.

`CCN1C(=CC2=C([O-])C(=Cc3[se]c4ccccc4[n+]3CC)C2=O)[Se]c2ccccc21` showed a photoluminescence quantum yield (in CC(C)O) of 0.14.

For `c1coc(-c2nc3ccccc3[nH]2)c1`, the photoluminescence quantum yield (in C1CCOC1) was 0.87, the photoluminescence quantum yield (in CCCCCC) was 0.95 and the photoluminescence quantum yield (in CCO) was 0.93. It also gave a photoluminescence quantum yield (in CCOCC) of 0.94, a photoluminescence quantum yield (in CO) of 0.97 and a photoluminescence quantum yield (in ClC(Cl)Cl) of 0.28. It also gave a photoluminescence quantum yield (in ClCCl) of 0.86 and a photoluminescence quantum yield (in O) of 0.96.

With `FC(F)(F)c1ccc2oc3nc4oc5ccc(-n6c7ccccc7c7ccccc76)cc5c4cc3c2c1` the photoluminescence quantum yield (in ClC(Cl)Cl) was 0.074.

Work on `O=S(=O)(c1ccc(N(c2ccccc2)c2ccccc2)cc1)c1ccc(S(=O)(=O)c2ccc(N(c3ccccc3)c3ccccc3)cc2)cc1` yielded a photoluminescence quantum yield (in Cc1ccccc1) of 0.64.

Compound `CN1CCCc2cc(C3=Cc4cccc[n+]4[B-](F)(F)O3)ccc21` has a photoluminescence quantum yield (in ClC(Cl)Cl) of 0.55.

Compound `COc1cc(C2=C(c3cc(OC)c(OC)c(OC)c3)C(c3ccc(C(C)(C)C)cc3)=[N+]3C2=Nc2c(-c4cc(OC)c(OC)c(OC)c4)c(-c4cc(OC)c(OC)c(OC)c4)c(-c4ccc(C(C)(C)C)cc4)n2[B-]3(F)F)cc(OC)c1OC` has a photoluminescence quantum yield (in Cc1ccccc1) of 0.001.

Work on `CN(C)c1ccc(C(=O)Nc2ccc(Cl)cc2)cc1` yielded a photoluminescence quantum yield (in C1CCCCC1) of 0.0011, a photoluminescence quantum yield (in C1CCOC1) of 0.0101 and a photoluminescence quantum yield (in CC#N) of 0.0171. For the same compound, the photoluminescence quantum yield (in CCOCC) was 0.005.

`CCN(CC)c1ccc(/C=N/c2ccccc2/N=C/c2ccc(N(CC)CC)cc2O)c(O)c1` showed a photoluminescence quantum yield (in CC#N) of 0.22.

In the case of `COc1ccc(/C=C/C(F)(F)F)c(N)c1`, the photoluminescence quantum yield (in C1CCOC1) is reported as 0.32.

Compound `O=C1c2ccccc2-c2c(-c3cc(Br)ccc3O)[nH]c(=O)n21` has a photoluminescence quantum yield (in CC#N) of 0.49, a photoluminescence quantum yield (in CO) of 0.32 and a photoluminescence quantum yield (in ClCCl) of 0.61.

`CCCCCCCCCCCCOc1cc2c3c(ccc4c5c(OCCCCCCCCCCCC)cc6c7c(ccc(c1c34)c75)C(=O)N(C1CCCCC1)C6=O)C(=O)N(C1CCCCC1)C2=O` showed a photoluminescence quantum yield (in ClC(Cl)Cl) of 0.724.

For `N#Cc1c(-n2c3ccccc3c3ccccc32)cccc1-n1c2ccccc2c2ccccc21`, the photoluminescence quantum yield (in Cc1ccccc1) was 0.13 and the photoluminescence quantum yield (in O=P(c1ccccc1)(c1ccccc1)c1ccccc1Oc1ccccc1P(=O)(c1ccccc1)c1ccccc1) was 0.28.

Compound `O=C(O)c1ccc(-c2nc(-c3ccccc3)c3ccccn23)cc1` has a photoluminescence quantum yield (in CC#N) of 0.13.

With `CC(C)(C)C1Nc2ccccc2C(=O)N1Cc1ccccc1` (configuration not stated) the photoluminescence quantum yield (in CC#N) was 0.09, the photoluminescence quantum yield (in CO) was 0.034 and the photoluminescence quantum yield (in ClC(Cl)Cl) was 0.055. The photoluminescence quantum yield (in c1ccccc1) was 0.08.

Work on `F[B-]1(F)n2cccc2C(c2c3ccccc3cc3ccccc23)=C2C=CC=[N+]21` yielded a photoluminescence quantum yield (in CCCCCC) of 0.135, a photoluminescence quantum yield (in Cc1ccccc1) of 0.008 and a photoluminescence quantum yield (in ClCCl) of 0.002.

`O=c1c2ccccc2n2c3ccccc3c(=O)c3cccc1c32` showed a photoluminescence quantum yield (in c1cc(-n2c3ccccc3c3ccccc32)cc(-n2c3ccccc3c3ccccc32)c1) of 0.724.

In the case of `CC[C@H](C)COc1ccc(C2=C3C(C)=CC(C)=[N+]3[B-](F)(F)n3c(C)cc(C)c32)cc1`, the photoluminescence quantum yield (in ClCCl) is reported as 0.87.

With `CCCCc1ccc(-n2c3c(c4c2c2c(n4-c4ccc(CCCC)cc4)-c4cc(F)ccc4NB2c2ccccc2)B(c2ccccc2)Nc2ccc(F)cc2-3)cc1` the photoluminescence quantum yield (in Cc1ccccc1) was 0.64.

Work on `c1ccc(-c2nc3c4ccccc4c4ccccc4c3n2-c2ccccc2)cc1` yielded a photoluminescence quantum yield (in C1CCOC1) of 0.588.
